Measurements taken from PubChem BioAssay AID1259407 (Chemical Carcinogenesis Research Information System (CCRIS), 2018).
Calls of active or inactive are those of the source. No rule for the calls is given here.

Test system: CCRIS mutagenicity, Ames/micronucleus/aberration tests
Assay: CCRIS mutagenicity studies

Measured: mutagenic call

Nc1c(Cl)cc(Cl)cc1Cl
inactive: End Point: IN VITRO CHROMOSOMAL ABERRATIONS, Test System: CHL CELLS, Metabolic Activation: NONE inactive; negative | End Point: IN VITRO CHROMOSOMAL ABERRATIONS, Test System: CHL CELLS, Metabolic Activation: RAT, LIVER, S-9, SODIUM PHENOBARBITAL AND 5,6-BENZOFLAVONE inactive; negative | Test System: AMES SALMONELLA TYPHIMURIUM, Strain/Indicator: TA97, Metabolic Activation: HAMSTER, LIVER, S-9, AROCLOR 1254 (10%), Method: PREINCUBATION inactive; negative | Test System: AMES SALMONELLA TYPHIMURIUM, Strain/Indicator: TA97, Metabolic Activation: HAMSTER, LIVER, S-9, AROCLOR 1254 (30%), Method: PREINCUBATION inactive; negative | Test System: AMES SALMONELLA TYPHIMURIUM, Strain/Indicator: TA97, Metabolic Activation: NONE, Method: PREINCUBATION inactive; negative | Test System: AMES SALMONELLA TYPHIMURIUM, Strain/Indicator: TA97, Metabolic Activation: RAT, LIVER, S-9, AROCLOR 1254 (10%), Method: PREINCUBATION inactive; negative | Test System: AMES SALMONELLA TYPHIMURIUM, Strain/Indicator: TA97, Metabolic Activation: RAT, LIVER, S-9, AROCLOR 1254 (30%), Method: PREINCUBATION inactive; negative | Test System: AMES SALMONELLA TYPHIMURIUM, Strain/Indicator: TA98, Metabolic Activation: HAMSTER, LIVER, S-9, AROCLOR 1254 (10%), Method: PREINCUBATION inactive; negative | Test System: AMES SALMONELLA TYPHIMURIUM, Strain/Indicator: TA98, Metabolic Activation: HAMSTER, LIVER, S-9, AROCLOR 1254 (30%), Method: PREINCUBATION inactive; negative | Test System: AMES SALMONELLA TYPHIMURIUM, Strain/Indicator: TA98, Metabolic Activation: NONE, Method: PREINCUBATION inactive; negative | Test System: AMES SALMONELLA TYPHIMURIUM, Strain/Indicator: TA98, Metabolic Activation: RAT, LIVER, S-9, AROCLOR 1254 (10%), Method: PREINCUBATION inactive; negative | Test System: AMES SALMONELLA TYPHIMURIUM, Strain/Indicator: TA98, Metabolic Activation: RAT, LIVER, S-9, AROCLOR 1254 (30%), Method: PREINCUBATION inactive; negative | Test System: AMES SALMONELLA TYPHIMURIUM, Strain/Indicator: TA100, Metabolic Activation: HAMSTER, LIVER, S-9, AROCLOR 1254 (5%), Method: PREINCUBATION inactive; negative | Test System: AMES SALMONELLA TYPHIMURIUM, Strain/Indicator: TA100, Metabolic Activation: HAMSTER, LIVER, S-9, AROCLOR 1254 (10%), Method: PREINCUBATION inactive; negative | Test System: AMES SALMONELLA TYPHIMURIUM, Strain/Indicator: TA100, Metabolic Activation: HAMSTER, LIVER, S-9, AROCLOR 1254 (30%), Method: PREINCUBATION inactive; negative | Test System: AMES SALMONELLA TYPHIMURIUM, Strain/Indicator: TA100, Metabolic Activation: NONE, Method: PREINCUBATION inactive; negative | Test System: AMES SALMONELLA TYPHIMURIUM, Strain/Indicator: TA100, Metabolic Activation: RAT, LIVER, S-9, AROCLOR 1254 (5%), Method: PREINCUBATION inactive; negative | Test System: AMES SALMONELLA TYPHIMURIUM, Strain/Indicator: TA100, Metabolic Activation: RAT, LIVER, S-9, AROCLOR 1254 (10%), Method: PREINCUBATION inactive; negative | Test System: AMES SALMONELLA TYPHIMURIUM, Strain/Indicator: TA100, Metabolic Activation: RAT, LIVER, S-9, AROCLOR 1254 (30%), Method: PREINCUBATION inactive; negative | Test System: AMES SALMONELLA TYPHIMURIUM, Strain/Indicator: TA1535, Metabolic Activation: HAMSTER, LIVER, S-9, AROCLOR 1254 (10%), Method: PREINCUBATION inactive; negative | Test System: AMES SALMONELLA TYPHIMURIUM, Strain/Indicator: TA1535, Metabolic Activation: HAMSTER, LIVER, S-9, AROCLOR 1254 (30%), Method: PREINCUBATION inactive; negative | Test System: AMES SALMONELLA TYPHIMURIUM, Strain/Indicator: TA1535, Metabolic Activation: NONE, Method: PREINCUBATION inactive; negative | Test System: AMES SALMONELLA TYPHIMURIUM, Strain/Indicator: TA1535, Metabolic Activation: RAT, LIVER, S-9, AROCLOR 1254 (10%), Method: PREINCUBATION inactive; negative | Test System: AMES SALMONELLA TYPHIMURIUM, Strain/Indicator: TA1535, Metabolic Activation: RAT, LIVER, S-9, AROCLOR 1254 (30%), Method: PREINCUBATION inactive; negative | Test System: UDS RODENT HEPATOCYTES, Strain/Indicator: THY INCORP (NON-S-PHASE), Metabolic Activation: NONE, Method: AUTORADIOGRAPHY inactive; negative
